Results: article PMC2999880 (Neuropharmacology, 2009)
Where two headings read alike, the source gives them in different places.

How the values were obtained:
[1] = clinical studies, human plasma, cited from earlier work
[2] = biological target: presynaptic naturally-expressed α4β2-containing nicotinic receptors (Rattus norvegicus, UniProt P09483+P12390); test: Nicotine-evoked [3H]-dopamine release from rat striatal synaptosomes; format: biochemical; conditions: read-out: DA Release IC50, 10 μM nicotine-evoked [3H]-dopamine release, mean (95% CI)
presynaptic naturally-expressed α4β2-containing nicotinic receptors, sequence (P09483 31-630): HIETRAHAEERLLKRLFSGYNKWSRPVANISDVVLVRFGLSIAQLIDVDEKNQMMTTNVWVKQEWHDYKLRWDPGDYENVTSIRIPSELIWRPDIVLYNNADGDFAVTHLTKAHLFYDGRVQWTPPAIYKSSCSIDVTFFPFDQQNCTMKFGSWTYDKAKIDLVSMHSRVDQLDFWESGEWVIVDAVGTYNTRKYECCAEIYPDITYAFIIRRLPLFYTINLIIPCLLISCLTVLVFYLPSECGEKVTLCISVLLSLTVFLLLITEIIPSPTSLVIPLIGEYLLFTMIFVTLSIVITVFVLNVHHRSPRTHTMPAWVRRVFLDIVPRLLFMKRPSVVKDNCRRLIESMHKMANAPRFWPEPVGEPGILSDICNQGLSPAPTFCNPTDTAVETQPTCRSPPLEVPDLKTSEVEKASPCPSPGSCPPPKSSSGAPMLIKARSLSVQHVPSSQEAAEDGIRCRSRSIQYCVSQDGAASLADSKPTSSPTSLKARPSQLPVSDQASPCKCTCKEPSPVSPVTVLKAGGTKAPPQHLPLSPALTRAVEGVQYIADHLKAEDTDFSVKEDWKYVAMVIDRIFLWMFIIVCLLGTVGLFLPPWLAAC
presynaptic naturally-expressed α4β2-containing nicotinic receptors, sequence (P12390 25-500): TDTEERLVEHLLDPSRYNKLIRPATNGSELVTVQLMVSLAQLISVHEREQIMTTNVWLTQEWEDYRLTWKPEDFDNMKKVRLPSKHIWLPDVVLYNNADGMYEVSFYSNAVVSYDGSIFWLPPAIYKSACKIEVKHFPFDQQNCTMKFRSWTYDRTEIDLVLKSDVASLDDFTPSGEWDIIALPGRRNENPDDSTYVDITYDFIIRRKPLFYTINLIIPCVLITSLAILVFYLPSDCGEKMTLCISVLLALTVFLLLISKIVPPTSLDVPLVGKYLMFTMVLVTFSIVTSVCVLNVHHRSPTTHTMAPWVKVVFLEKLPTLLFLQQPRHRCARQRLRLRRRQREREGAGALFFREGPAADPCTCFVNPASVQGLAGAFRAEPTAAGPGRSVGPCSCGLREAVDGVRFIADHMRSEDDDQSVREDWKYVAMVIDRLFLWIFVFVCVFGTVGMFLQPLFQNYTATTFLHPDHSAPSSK

[3] = biological target: α7 NNR binding sites in rat hippocampal preparations (Rattus norvegicus, UniProt Q05941); test: [3H]-methyllycaconitine competition binding to rat hippocampal membranes; conditions: 5 nM [3H]-methyllycaconitine, test compound up to 100 μM
α7 NNR binding sites in rat hippocampal preparations, sequence (Q05941 23-502): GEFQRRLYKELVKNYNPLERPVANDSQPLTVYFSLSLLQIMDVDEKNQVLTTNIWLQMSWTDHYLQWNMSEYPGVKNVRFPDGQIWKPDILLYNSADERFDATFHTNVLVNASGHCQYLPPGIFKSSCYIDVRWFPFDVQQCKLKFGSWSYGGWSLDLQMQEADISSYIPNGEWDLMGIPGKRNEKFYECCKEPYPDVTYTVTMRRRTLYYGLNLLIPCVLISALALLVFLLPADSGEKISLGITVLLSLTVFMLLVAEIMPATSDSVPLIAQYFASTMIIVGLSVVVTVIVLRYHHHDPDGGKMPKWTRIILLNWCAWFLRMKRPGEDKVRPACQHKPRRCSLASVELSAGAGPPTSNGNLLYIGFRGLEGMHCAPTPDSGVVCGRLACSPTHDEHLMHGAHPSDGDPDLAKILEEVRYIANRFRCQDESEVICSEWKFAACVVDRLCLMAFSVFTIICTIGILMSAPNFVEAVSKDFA

rat α7 NNRs = rat α7 NNRs (Rattus norvegicus, UniProt Q05941); test: ACh-evoked currents; format: cell-based; conditions: for pseudo-Hill slope (nH): variable slope sigmoid fit of inhibition of 60 μM ACh-evoked currents
rat α7 NNRs, sequence (Q05941 23-502): as above

α7 NNRs = α7 NNRs (Rattus norvegicus, UniProt Q05941); test: Epibatidine-evoked [3H]-norepinephrine release from rat hippocampal slices; format: cell-based
α7 NNRs, sequence (Q05941 23-502): as above

[4] = biological target: recombinant α4β2 NNRs expressed in SH-EP1 cells (Homo sapiens, UniProt P17787+P43681); test: [3H]-nicotine binding to recombinant α4β2 NNRs in SH-EP1 cell membranes; conditions: 5 nM [3H]-nicotine, test compound up to 100 μM
recombinant α4β2 NNRs expressed in SH-EP1 cells, sequence (P43681 29-627 limits assumed): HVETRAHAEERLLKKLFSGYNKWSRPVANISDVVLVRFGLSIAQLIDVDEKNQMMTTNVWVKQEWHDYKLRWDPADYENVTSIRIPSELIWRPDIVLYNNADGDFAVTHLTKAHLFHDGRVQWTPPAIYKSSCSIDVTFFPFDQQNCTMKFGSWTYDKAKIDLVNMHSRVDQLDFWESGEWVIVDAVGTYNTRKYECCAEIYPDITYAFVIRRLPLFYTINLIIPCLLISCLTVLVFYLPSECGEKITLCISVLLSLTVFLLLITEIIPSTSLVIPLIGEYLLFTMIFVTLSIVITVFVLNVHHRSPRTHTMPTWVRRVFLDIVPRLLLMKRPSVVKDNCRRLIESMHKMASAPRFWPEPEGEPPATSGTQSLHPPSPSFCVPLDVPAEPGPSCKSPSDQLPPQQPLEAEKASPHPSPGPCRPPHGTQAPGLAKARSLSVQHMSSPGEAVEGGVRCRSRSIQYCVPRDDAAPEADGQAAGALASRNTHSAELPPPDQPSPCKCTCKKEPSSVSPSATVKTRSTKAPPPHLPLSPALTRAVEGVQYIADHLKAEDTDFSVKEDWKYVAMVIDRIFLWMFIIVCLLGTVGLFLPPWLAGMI
recombinant α4β2 NNRs expressed in SH-EP1 cells, sequence (P17787 26-502): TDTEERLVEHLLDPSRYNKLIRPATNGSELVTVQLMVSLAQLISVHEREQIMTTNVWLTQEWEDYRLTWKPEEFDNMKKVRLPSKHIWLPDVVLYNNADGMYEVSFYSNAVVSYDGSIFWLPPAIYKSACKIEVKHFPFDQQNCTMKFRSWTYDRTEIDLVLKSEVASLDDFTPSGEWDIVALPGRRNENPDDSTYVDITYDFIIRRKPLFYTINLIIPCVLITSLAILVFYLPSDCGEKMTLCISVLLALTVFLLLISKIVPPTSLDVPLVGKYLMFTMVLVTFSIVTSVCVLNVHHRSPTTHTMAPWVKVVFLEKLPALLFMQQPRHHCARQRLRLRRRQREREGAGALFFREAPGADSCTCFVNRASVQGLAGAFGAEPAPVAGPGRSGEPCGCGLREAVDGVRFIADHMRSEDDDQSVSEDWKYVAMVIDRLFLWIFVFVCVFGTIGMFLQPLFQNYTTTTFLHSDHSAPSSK

[5] = Maximum plasma concentrations achieved in clinical studies; format: in vivo, human; conditions: calculated from reported ng/mL and molecular weight
[6] = biological target: α4β2 nicotinic receptors stably transfected in SH-EP1 cells (Homo sapiens, UniProt P17787+P43681); test: 86Rb+ efflux in α4β2/SH-EP1 cells; format: cell-based; conditions: for extent of inhibition of nicotine-evoked 86Rb+ efflux: 10 μM nicotine; for extent of inhibition of TC-1827-evoked 86Rb+ efflux: 100 μM TC-1827; for effect on basal 86Rb+ efflux: compound alone, no agonist (data not shown)
α4β2 nicotinic receptors stably transfected in SH-EP1 cells, sequence (P43681 29-627 limits assumed): as the sequence (P43681 29-627 limits assumed) above
α4β2 nicotinic receptors stably transfected in SH-EP1 cells, sequence (P17787 26-502): as the sequence (P17787 26-502) above

Structure (SMILES)	IC50 [2]	inhibition of [3H]-methyllycaconitine binding [3]	IC50 (rat α7 NNRs)	pseudo-Hill slope (nH) (rat α7 NNRs)	IC50 (α7 NNRs)	inhibition of [3H]-nicotine binding [4]	Max. Plasma Levels ([1]; ref Dumortier et al., 1998)	Max. Plasma Levels ([1]; ref Wong et al., 2006)	Max. Plasma Levels ([5]; ref Dumortier et al., 1998)	Max. Plasma Levels ([5]; ref Wong et al., 2006)	extent of inhibition of nicotine-evoked 86Rb+ efflux [6]	extent of inhibition of TC-1827-evoked 86Rb+ efflux [6]	effect on basal 86Rb+ efflux [6]	further results
CN(C)CCCN1c2ccccc2Sc2ccc(Cl)cc21 [Chlorpromazine, chlorpromazine]	2.8 µM	None of the compounds tested inhibited binding	9.1 µM	−0.84	1.7 µM	None of the compounds tested inhibited binding	–	–	–	–	–	–	–	Max. Plasma Levels ([1]; ref Chetty and Miller, 2001): 839 ng/mL; Max. Plasma Levels ([1]; ref Chetty et al., 1996): 422 ng/mL; Max. Plasma Levels ([1]; ref Della Corte et al., 1993): 124 ng/mL; Max. Plasma Levels ([5]; ref Chetty and Miller, 2001): 2.4 µM; Max. Plasma Levels ([5]; ref Chetty et al., 1996): 1.2 µM
CN1CCN(C2=Nc3cc(Cl)ccc3Nc3ccccc32)CC1 [Clozapine, clozapine]	–	–	–	–	–	None of the compounds tested inhibited binding	1310 ng/mL	1920 ng/mL	4.0 µM	5.9 µM	completely inhibited	fully inhibited	None of these compounds affected the basal	Max. Plasma Levels ([1]; ref Diaz et al., 2005): 574 ng/mL; Max. Plasma Levels ([1]; ref Freudenreich et al., 1996): 880 ng/mL; Max. Plasma Levels ([1]; ref Perry et al., 1991): 1088 ng/mL; Max. Plasma Levels ([5]; ref Diaz et al., 2005): 1.8 µM; Max. Plasma Levels ([5]; ref Perry et al., 1991): 3.3 µM
O=C(CCCN1CCC(O)(c2ccc(Cl)cc2)CC1)c1ccc(F)cc1 [Haloperidol, haloperidol]	–	–	–	–	–	None of the compounds tested inhibited binding	–	–	–	–	completely inhibited	–	None of these compounds affected the basal	Max. Plasma Levels ([1]; ref Roh et al., 2001): 86 ng/mL; Max. Plasma Levels ([5]; ref Roh et al., 2001): 0.23 µM
Clc1ccc2c(c1)N=C(N1CCNCC1)c1ccccc1N2 [N-desmethylclozapine]	2.1 µM	None of the compounds tested inhibited binding	3.2 µM	−1.3	2.2 µM	None of the compounds tested inhibited binding	580 ng/mL	720 ng/mL	1.9 µM	2.3 µM	completely inhibited	fully inhibited	None of these compounds affected the basal	Max. Plasma Levels ([1]; ref Flanagan et al., 2003): 420 ng/mL; activity at 6 µM (rat α7 NNRs; read-out: maximal ACh net charge response in the presence of inhibitor): 37.5 ± 5%; Max. Plasma Levels ([5]; ref Flanagan et al., 2003): 1.3 µM; IC50 [6]: 2.1 µM
OCCOCCN1CCN(C2=Nc3ccccc3Sc3ccccc32)CC1 [Quetiapine, quetiapine]	–	–	–	–	–	–	–	–	–	–	–	–	–	Max. Plasma Levels ([1]; ref Aichhorn et al., 2006): 491 ng/mL; Max. Plasma Levels ([1]; ref Grimm et al., 2006): 1042 ng/mL; Max. Plasma Levels ([1]; ref Lin et al., 2004): 91 ng/mL; Max. Plasma Levels ([1]; ref Tauscher-Wisniewski et al., 2002): 1454 ng/mL; Max. Plasma Levels ([5]; ref Aichhorn et al., 2006): 1.3 µM; Max. Plasma Levels ([5]; ref Grimm et al., 2006): 2.7 µM; Max. Plasma Levels ([5]; ref Lin et al., 2004): 0.24 µM
